Laboratory results published in ChEMBL document CHEMBL1154937, “Radiosynthesis of novel carbon-11-labeled triaryl ligands for cannabinoid-type 2 receptor” (Bioorg Med Chem Lett, 2010).

Key:
Blood [1] = assay: Drug uptake in […] blood at 8 MBq/200 mL, iv after 1 min; type: ADME, organism-based; conditions: in vivo
Brain [2] = assay: Drug uptake in […] brain at 8 MBq/200 mL, iv after 60 mins; type: ADME, organism-based; conditions: in vivo, 1 h
Blood [3] = assay: Drug uptake in […] blood at 8 MBq/200 mL, iv after 15 mins; type: ADME, organism-based; conditions: in vivo, 0.25 h
Brain [4] = assay: Drug uptake in […] brain at 8 MBq/200 mL, iv after 30 mins; type: ADME, organism-based; conditions: in vivo, 0.5 h
Brain [5] = assay: Drug uptake in […] brain at 8 MBq/200 mL, iv after 15 mins; type: ADME, organism-based; conditions: in vivo, 0.25 h
Cannabinoid receptor 2 [6] = target: T1, Cannabinoid receptor 2 (Rattus norvegicus, UniProt Q9QZN9); assay: Binding affinity to rat brain CB2 receptor
T1 sequence (Q9QZN9 whole entry): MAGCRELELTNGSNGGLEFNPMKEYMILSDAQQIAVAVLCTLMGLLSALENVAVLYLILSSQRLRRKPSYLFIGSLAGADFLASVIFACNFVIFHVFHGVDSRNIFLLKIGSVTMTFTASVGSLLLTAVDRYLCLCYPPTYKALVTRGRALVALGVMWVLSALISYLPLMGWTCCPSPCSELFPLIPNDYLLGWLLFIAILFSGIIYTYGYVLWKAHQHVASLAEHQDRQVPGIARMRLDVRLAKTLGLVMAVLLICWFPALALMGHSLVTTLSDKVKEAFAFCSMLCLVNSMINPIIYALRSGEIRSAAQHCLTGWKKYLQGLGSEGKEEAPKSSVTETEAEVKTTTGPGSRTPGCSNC

Brain [7] = assay: Drug uptake in […] brain at 8 MBq/200 mL, iv after 1 min; type: ADME, organism-based; conditions: in vivo
Blood [8] = assay: Drug uptake in […] blood at 8 MBq/200 mL, iv after 30 mins; type: ADME, organism-based; conditions: in vivo, 0.5 h
Blood [9] = assay: Drug uptake in […] blood at 8 MBq/200 mL, iv after 5 mins; type: ADME, organism-based; conditions: in vivo
Brain [10] = assay: Drug uptake in […] brain at 8 MBq/200 mL, iv after 5 mins; type: ADME, organism-based; conditions: in vivo
Blood [11] = assay: Drug uptake in […] blood at 8 MBq/200 mL, iv after 60 mins; type: ADME, organism-based; conditions: in vivo, 1 h
Cannabinoid receptor 2 [12] = target: Cannabinoid receptor 2 (Homo sapiens, UniProt P34972); assay: Binding affinity to human CB2 receptor
Cannabinoid receptor 1 = Cannabinoid receptor 1 (Homo sapiens, UniProt P21554); assay: Binding affinity to CB1 receptor
Sequence of Cannabinoid receptor 1 (P21554 whole entry): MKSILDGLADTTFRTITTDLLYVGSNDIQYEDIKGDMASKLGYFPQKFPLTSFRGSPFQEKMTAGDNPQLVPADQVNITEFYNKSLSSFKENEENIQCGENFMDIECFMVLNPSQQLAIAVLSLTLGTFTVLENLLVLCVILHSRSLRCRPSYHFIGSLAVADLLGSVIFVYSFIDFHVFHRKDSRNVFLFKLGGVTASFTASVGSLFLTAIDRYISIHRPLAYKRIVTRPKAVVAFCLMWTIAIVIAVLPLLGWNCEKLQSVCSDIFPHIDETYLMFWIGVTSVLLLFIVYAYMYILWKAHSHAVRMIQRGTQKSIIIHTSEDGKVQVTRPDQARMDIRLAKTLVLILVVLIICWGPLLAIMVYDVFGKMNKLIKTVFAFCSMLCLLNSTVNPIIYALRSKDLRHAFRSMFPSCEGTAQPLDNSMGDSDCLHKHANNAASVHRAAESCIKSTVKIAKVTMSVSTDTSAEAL

Sequence of Cannabinoid receptor 2 (Homo sapiens, UniProt P34972) (P34972 whole entry): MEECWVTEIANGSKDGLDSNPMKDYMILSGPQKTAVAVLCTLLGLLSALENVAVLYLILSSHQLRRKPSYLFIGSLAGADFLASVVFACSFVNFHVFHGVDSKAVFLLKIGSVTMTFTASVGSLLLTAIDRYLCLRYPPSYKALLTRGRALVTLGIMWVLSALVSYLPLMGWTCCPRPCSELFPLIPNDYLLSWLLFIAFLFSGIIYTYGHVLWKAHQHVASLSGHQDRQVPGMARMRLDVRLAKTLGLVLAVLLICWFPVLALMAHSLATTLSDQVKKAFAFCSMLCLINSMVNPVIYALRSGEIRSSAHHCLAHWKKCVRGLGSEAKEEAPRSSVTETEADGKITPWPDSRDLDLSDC

`COc1cc(C(O)c2cccs2)cc(O[11CH3])c1-c1cc(Cl)cc(Cl)c1` (stereo unspecified) gave a Drug uptake (Blood [1]) of 3.9%, a Drug uptake (Brain [2]) of 0.65% and a Drug uptake (Blood [3]) of 2.25%. For the same molecule, the Drug uptake (Brain [4]) was 1.09%, the Drug uptake (Brain [5]) was 1.5% and the Ki (Cannabinoid receptor 2 [6]) was 0.27 nM. The Drug uptake (Brain [7]) was 1.93%, the Drug uptake (Blood [8]) was 2.38% and the Drug uptake (Blood [9]) was 2.12%. The Drug uptake (Brain [10]) was 1.87% and the Drug uptake (Blood [11]) was 2.27%.

With `[11CH3]Oc1cc(C(=O)c2cccs2)cc(O)c1-c1cc(Cl)cc(Cl)c1` the Drug uptake (Blood [1]) was 1.56%, the Drug uptake (Brain [2]) was 0.18% and the Drug uptake (Blood [3]) was 0.63%. For the same molecule, the Drug uptake (Brain [4]) was 0.56%, the Drug uptake (Brain [5]) was 1.01% and the Ki (Cannabinoid receptor 2 [6]) was 2.32 nM. The Drug uptake (Brain [7]) was 1.54%, the Drug uptake (Blood [8]) was 0.36% and the Drug uptake (Blood [9]) was 1%. The Drug uptake (Brain [10]) was 1.63% and the Drug uptake (Blood [11]) was 0.21%.

Molecule `[11CH3]Oc1cc(C(O)c2cccs2)cc(O)c1-c1cc(Cl)cc(Cl)c1` (stereo unspecified) has a Drug uptake (Blood [1]) of 2.2%, a Drug uptake (Brain [2]) of 0.45% and a Drug uptake (Blood [3]) of 0.7%. It also gave a Drug uptake (Brain [4]) of 0.96%, a Drug uptake (Brain [5]) of 1.77% and a Drug uptake (Brain [7]) of 1.94%. The Drug uptake (Blood [8]) was 0.35%, the Drug uptake (Blood [9]) was 1.18% and the Drug uptake (Brain [10]) was 2.07%. For the same molecule, the Drug uptake (Blood [11]) was 0.37%.

`COc1cc(C(=O)c2cccs2)cc(O[11CH3])c1-c1cc(Cl)cc(Cl)c1` was tested, and the Drug uptake (Blood [1]) was 2.71%, the Drug uptake (Brain [2]) was 0.62% and the Drug uptake (Blood [3]) was 3.45%. For the same molecule, the Drug uptake (Brain [4]) was 0.85%, the Drug uptake (Brain [5]) was 1.1% and the Drug uptake (Brain [7]) was 1.2%. It also gave a Drug uptake (Blood [8]) of 3.42%, a Drug uptake (Blood [9]) of 2.93% and a Drug uptake (Brain [10]) of 1.29%. The Drug uptake (Blood [11]) was 3.38%.

In the case of `CCCCOc1c(O[11CH3])ccc2cc(C(=O)NC3CCCCC3)c(=O)[nH]c12`, the Ki (Cannabinoid receptor 2 [12]) is reported as 9.6 nM.

Molecule `COc1ccc(S(=O)(=O)c2ccc(C(C)NS(C)(=O)=O)cc2)c(S(=O)(=O)c2ccc(O[11CH3])cc2)c1` (stereo unspecified) has a Ki (Cannabinoid receptor 2 [12]) of 4.5 nM.

`CCCCOc1c(OCC[18F])ccc2cc(C(=O)NC3CCCCC3)c(=O)[nH]c12` showed a Ki (Cannabinoid receptor 2 [12]) of 35.8 nM.

Work on `COc1cc(C(O)c2cccs2)cc(OC)c1-c1cc(Cl)cc(Cl)c1` (stereo unspecified) yielded a Ki (Cannabinoid receptor 1) of over 1000 nM.
